Assay results from US8022055B2, “Betulinic acid derivatives” (Dabur Pharma Limited, priority 2005, dated 2011).

Columns and labels:
[1] = test system: A549; assay: three day MTT cytotoxicity assay, A549; format: cell-based, human; conditions: for Specific Index (SI) for cell lines A549: ratio of IC50 of NIH 3T3 cells to A549
Experimental: (§1) A number of compounds listed in Table-3 were tested for cytotoxicity against prostate, lung, laryngeal, pancreas, breast, colon and ovarian cancer, leukemia and lymphoma, human tumor cell lines. Briefly, a three day MTT cytotoxicity assay was performed, which is based on the principle of uptake of MTT (3-(4,5-dimethylthiazol-2-yl)-2,5-diphenyl tetrazolium bromide), a tetrazolium salt, by the metabolically active cells where it is metabolized by active mitochondria into a blue colored formazan product that is read spectrophotometrically. MIT was dissolved in phosphate buffered saline with a pH of 7.4 to obtain an MIT concentration of 5 mg/ml; the resulting mixture was filtered through a 0.22-micron filter to sterilize and remove a small amount of insoluble residue. For each type of tumor cell, 10,000 to 15,000 cells were seeded in a 96-well culture plate and incubated with the individual betulinic acid derivatives in a CO2 incubator for a total of 72 hours. Control cells not treated with the betulinic acid derivatives were similarly incubated. The assay was terminated by adding 100 μg (20 μl) of MIT to each well then incubating for additional one hour, and finally adding 50 μl of 10% SDS-0.01N HCl to each well to lyse the cells and dissolve formazan. After incubating for one hour, the plate was read spectrophotometrically at 540 nm and the percentage of cytotoxicity calculated using the following formula: Cytotoxicity percentage=100×[1−(X/R1)], where X=(absorbance of treated sample at 540 nm)−(absorbance of blank at 540 nm) R1=absorbance of control sample at 540 nm. The IC50 Values of the cytotoxicity defined as the concentration at which 50% of the cells are killed in vitro was calculated for each cell line treated with each of the betulinic acid derivatives.

[2] = test system: HBL100; assay: three day MTT cytotoxicity assay, HBL100; format: cell-based, human; conditions: for Specific Index (SI) for cell lines HBL100: ratio of IC50 of NIH 3T3 cells to HBL100
Experimental: as §1

[3] = test system: Miapaca; assay: three day MTT cytotoxicity assay, Miapaca; format: cell-based, human; conditions: for Specific Index (SI) for cell lines Miapaca: ratio of IC50 of NIH 3T3 cells to Miapaca
Experimental: as §1

[4] = test system: K562; assay: three day MTT cytotoxicity assay, K562; format: cell-based, human; conditions: for Specific Index (SI) for cell lines K562: ratio of IC50 of NIH 3T3 cells to K562
Experimental: as §1

[5] = test system: NIH 3T3 cells; assay: NIH3T3 cytotoxicity test (72 h MTT assay); format: cell-based; conditions: NIH3T3, 72 hours
Experimental: The cytotoxic effect of chemicals upon NIH 3T3 cells in culture is measured by cell metabolism determination using the previously described MIT assay. Healthy NIH 3T3 cells (an established cell-line), when maintained in culture continuously divide and multiply over time. The basis of this test is that a cytotoxic chemical (regardless of site or mechanism of action) will interfere with this process and, thus, result in a reduction of the growth rate as reflected by cell number. The degree of inhibition of growth, related to the concentration of the test compound, provides an indication of toxicity.
The NIH 3T3 cells are maintained in culture and exposed to test compounds over a range of concentrations and the number of viable cells determined after 72 hours exposure by MIT assay. The number of cells in the presence of test chemicals are compared to that observed in control cultures and the percent inhibition of growth calculated. The IC50 concentration (i.e. the concentration producing 50% inhibition of growth) is determined and expressed as μg/ml. A ratio of IC50 of NIH 3T3 cells to tumor cells is an indicator of predicted toxicity of the molecule and is represented as “Safety Index”. The higher the value, the better is the predicted safety of the molecule.

[6] = test system: PA1; assay: three day MTT cytotoxicity assay, PA1; format: cell-based, human; conditions: for IC50 for cell lines PA1: PA1, 72 hours
Experimental: (§2) Briefly, a three day MTT cytotoxicity assay was performed, which is based on the principle of uptake of MTT (3-(4,5-dimethylthiazol-2-yl)-2,5-diphenyl tetrazolium bromide), a tetrazolium salt, by the metabolically active cells where it is metabolized by active mitochondria into a blue colored formazan product that is read spectrophotometrically. MIT was dissolved in phosphate buffered saline with a pH of 7.4 to obtain an MIT concentration of 5 mg/ml; the resulting mixture was filtered through a 0.22-micron filter to sterilize and remove a small amount of insoluble residue. For each type of tumor cell, 10,000 to 15,000 cells were seeded in a 96-well culture plate and incubated with the individual betulinic acid derivatives in a CO2 incubator for a total of 72 hours. Control cells not treated with the betulinic acid derivatives were similarly incubated. The assay was terminated by adding 100 μg (20 μl) of MIT to each well then incubating for additional one hour, and finally adding 50 μl of 10% SDS-0.01N HCl to each well to lyse the cells and dissolve formazan. After incubating for one hour, the plate was read spectrophotometrically at 540 nm and the percentage of cytotoxicity calculated using the following formula: Cytotoxicity percentage=100×[1−(X/R1)], where X=(absorbance of treated sample at 540 nm)−(absorbance of blank at 540 nm) R1=absorbance of control sample at 540 nm. The IC50 Values of the cytotoxicity defined as the concentration at which 50% of the cells are killed in vitro was calculated for each cell line treated with each of the betulinic acid derivatives.

[7] = test system: DU145; assay: three day MTT cytotoxicity assay, DU145; format: cell-based, human; conditions: for IC50 for cell lines DU145: DU145, 72 hours
Experimental: as §1

[8] = test system: SW620; assay: three day MTT cytotoxicity assay, SW620; format: cell-based, human; conditions: for IC50 for cell lines SW620: SW620, 72 hours
Experimental: as §2

Row | Molecule | IC50 for cell lines A549 ([1]; A549, 72 hours, MTT) [µg/mL] | IC50 for cell lines HBL100 ([2]; HBL100, 72 hours, MTT) [µg/mL] | IC50 for cell lines Miapaca ([3]; Miapaca, 72 hours, MTT) [µg/mL] | IC50 for cell lines K562 ([4]; K562, 72 hours, MTT) [µg/mL] | IC50 for cell lines NIH3T3 [5] [µg/mL] | IC50 for cell lines PA1 [6] [µg/mL] | IC50 for cell lines DU145 [7] [µg/mL] | IC50 for cell lines SW620 [8] [µg/mL] | Specific Index (SI) for cell lines HBL100 [2] | Specific Index (SI) for cell lines Miapaca [3] | Specific Index (SI) for cell lines K562 [4] | Specific Index (SI) for cell lines A549 [1] | IC50 ([1]; Homo sapiens, A549, 72 hours, MTT, read-out: IC50 for cell lines A549) [µg/mL] | IC50 ([2]; Homo sapiens, HBL-100, HBL100, 72 hours, MTT, read-out: IC50 for cell lines HBL100) [µg/mL] | IC50 ([3]; Homo sapiens, MIA PaCa-2, Miapaca, 72 hours, MTT, read-out: IC50 for cell lines Miapaca) [µg/mL] | IC50 ([4]; Homo sapiens, K562, 72 hours, MTT, read-out: IC50 for cell lines K562) [µg/mL] | IC50 ([5]; Mus musculus, read-out: IC50 for cell lines NIH3T3) [µg/mL] | IC50 ([6]; Homo sapiens, PA-1, PA1, 72 hours, read-out: IC50 for cell lines PA1) [µg/mL] | IC50 ([7]; Homo sapiens, DU-145, DU145, 72 hours, read-out: IC50 for cell lines DU145) [µg/mL] | IC50 ([8]; Homo sapiens, SW-620, SW620, 72 hours, read-out: IC50 for cell lines SW620) [µg/mL]
1 | C=C(C)[C@@H]1CC[C@]2(C(=O)NC3CC3)CC[C@]3(C)C(CCC4[C@@]5(C)Cc6c([nH]c7ccc(Cl)cc67)C(C)(C)C5CC[C@]43C)C12 (stereo partly shown) [Compound 34, 28-N-Cyclopropyl-5′-chloro-2,3-didehydroindolo[2′,′:2,3]betulinamide] | >20 | >20 | >20 | >20 | 1.82 | >20 | >20 | >20 | – | – | – | – | – | – | – | – | – | – | – | –
2 | C=C(C)[C@@H]1CC[C@]2(C(=O)NCC(=O)O)CC[C@]3(C)[C@H](CC[C@@H]4[C@@]5(C)Cc6c([nH]c7ccccc67)C(C)(C)[C@@H]5CC[C@]43C)[C@@H]12 [Compound 22, 28-N-Glycine-2,3-didehydroindolo[2′,3′:2,3]betulinamide] | 3.53 ± 0.82 | >20 | 0.67 ± 0.03 | 11.92 ± 1.37 | 0.68 ± 0.003 | 3.0 | 7.0 | 8.7 | <0.034 | 1.015 | 0.057 | – | – | – | – | – | – | – | – | –
3 | CC(C)[C@@H]1CC[C@]2(C(=O)O)CC[C@]3(C)[C@H](CC[C@@H]4[C@@]5(C)Cc6c([nH]c7ccc(Cl)cc67)C(C)(C)[C@@H]5CC[C@]43C)[C@@H]12 [Compound 6, 5′-Chloro-2,3-didehydro-20,29-dihydroindolo[2′,′:2,3]betulinic acid] | 8.8 ± 0.74 | >20 | 15.19 ± 1.06 | >20 | 19.03 ± 0.21 | 6.6 | 6.5 | 5.9 | <0.951 | 1.252 | <0.952 | 2.163 | – | – | – | – | – | – | – | –
4 | C=C(C)[C@@H]1CC[C@]2(C(=O)NCC(=O)OC)CC[C@]3(C)C(CCC4[C@@]5(C)Cc6c([nH]c7ccccc67)C(C)(C)C5CC[C@]43C)C12 (stereo partly shown) [Compound 21, 28-N-Methylglycinate-2,3-didehydroindolo[2′,3′:2,3]betulinamide] | – | – | – | – | – | – | – | – | – | – | – | – | > 20 | > 20 | > 20 | > 20 | > 20 | > 20 | > 20 | > 20
5 | C=C(C)[C@@H]1CC[C@]2(C(=O)NCC(=O)O)CC[C@]3(C)C(CCC4[C@@]5(C)Cc6c([nH]c7ccc(Cl)cc67)C(C)(C)C5CC[C@]43C)C12 (stereo partly shown) [Compound 24, 28-N-Glycine-5′-chloro-2,3-didehydroindolo[2′,3′:2,3]betulinamide] | 12.4 ± 1.78 | 16.5 ± 0.6 | 10.7 ± 0.63 | >20 | 11.2 ± 0.63 | 6.66 | 10.32 | 10.42 | 0.679 | 1.047 | <0.56 | 0.903 | – | – | – | – | – | – | – | –
6 | C=C(C)[C@@H]1CC[C@]2(C(=O)O)CC[C@]3(C)[C@H](CC[C@@H]4[C@@]5(C)Cc6c([nH]c7ccccc67)C(C)(C)[C@@H]5CC[C@]43C)[C@@H]12 [Compound 1, 2,3-Didehydroindolo[2′,′:2,3]betulinic acid] | 7.6 ± 0.57 | 10.3 ± 0.9 | 6.7 ± 0.59 | 10.05 ± 0.61 | 6.9 ± 0.76 | 6.01 | 8.86 | 5.151 | 0.669 | 1.029 | 0.68 | 0.907 | – | – | – | – | – | – | – | –
7 | C=C(C)[C@@H]1CC[C@]2(C(=O)OCc3ccccc3)CC[C@]3(C)C(CCC4[C@@]5(C)Cc6c([nH]c7ccc(Cl)cc67)C(C)(C)C5CC[C@]43C)C12 (stereo partly shown) [Compound 19, 28-O-Benzyl-5′-chloro-2,3-didehydroindolo[2′,′:2,3]betulinate] | >20 | >20 | >20 | >20 | >20 | >20 | >20 | >20 | – | – | – | – | – | – | – | – | – | – | – | –
8 | 28-O-Pivaloyoxymethyl-2,3-didehydroindolo[2′,3′:2,3]betulinate [Compound 17] | >20 | >20 | >20 | >20 | >20 | >20 | >20 | >20 | – | – | – | – | – | – | – | – | – | – | – | –
9 | C=C(C)[C@@H]1CC[C@]2(C(=O)O)CC[C@]3(C)C(CCC4[C@@]5(C)Cc6c(oc7ccccc67)C(C)(C)C5CC[C@]43C)C12 (stereo partly shown) [Compound 11, 2,3-Didehydrobenzfurano[2′,3′:2,3]betulinic acid] | >20 | >20 | >20 | >20 | 19.03 ± 0.79 | >20 | >20 | >20 | <0.952 | <0.952 | <0.952 | <0.952 | – | – | – | – | – | – | – | –
10 | C=C(C)[C@@H]1CC[C@]2(C(=O)OCc3ccccc3)CC[C@]3(C)C(CCC4[C@@]5(C)Cc6c([nH]c7ccccc67)C(C)(C)C5CC[C@]43C)C12 (stereo partly shown) [Compound 15, 28-O-Benzyl-2,3-didehydro[2′,3′:2,3]indolobetulinate] | >20 | >20 | >20 | >20 | >20 | >20 | >20 | >20 | – | – | – | – | – | – | – | – | – | – | – | –
11 | C=CCOC(=O)[C@]12CC[C@@H](C(=C)C)C1C1CCC3[C@@]4(C)Cc5c([nH]c6ccccc56)C(C)(C)C4CC[C@@]3(C)[C@]1(C)CC2 (stereo partly shown) [Compound 18, 28-O-Allyl-2,3-didehydroindolo[2′,3′:2,3]betulinate] | >20 | >20 | >20 | >20 | >20 | >20 | >20 | >20 | – | – | – | – | – | – | – | – | – | – | – | –
12 | C=C(C)[C@@H]1CC[C@]2(C(=O)O)CC[C@]3(C)C(CCC4[C@@]5(C)Cc6c([nH]c7cc(Cl)cc(Cl)c67)C(C)(C)C5CC[C@]43C)C12 (stereo partly shown) [Compound 31, 2,3-Didehydro-4′,6′-dichloroindolo[2′,3′:2,3]betulinic acid] | 5.5 | >20 | >20 | >20 | 4.10 | >20 | >20 | >20 | – | – | – | – | – | – | – | – | – | – | – | –
